Read-outs that look alike come from different tables or passages of the source.
How the values were obtained:
plasma 24HC [1] = test: Adult DEE patients: pharmacodynamics, plasma 24HC; assay type: in vivo, human; details: for mean plasma 24HC decrease from baseline: Part A
Experimental: Blood sample collection and analyses for measuring 24HC was performed as previously described in example 5.

plasma 24HC [2] = test: Healthy Japanese subjects, Part 1: plasma 24HC pharmacodynamics; assay type: in vivo, human; details: for AUEC24 of plasma 24HC / AUECt of plasma 24HC (time 0 to last sampling time point) / E24 of plasma 24HC (observed effect at 24 hours) / Emax of plasma 24HC (maximum drug-induced effect): mean (% CV); for Emax: Homo sapiens, read-out: % change from Baseline in Emax of plasma 24HC; for Emax / % change from Baseline in AUEC24 of plasma 24HC / % change from Baseline in E24 of plasma 24HC: mean; for Time to Emax of plasma 24HC: median (min-max)
Experimental: On Day 1 of each dose level, a single dose of TAK-935 or placebo was administered, and safety, PK and PD were evaluated.
Blood samples for PD analysis of plasma 24HC level were collected into blood collection tubes (vacutainer) containing the anticoagulant K2EDTA.
The PD assessments described below were performed at the time points stipulated in the schedule of procedures. The additional PD endpoints included the following PD parameters for plasma 24HC: […]

[3] = Text: The datasets from the clinical trials described above were used in a population PK and PK/PD modeling analysis. Three PK samples were excluded from the analyses because their baseline values were over the limit of quantification. The ELEKTRA dataset contained 69 single-dose and 270 steady-state dose events. Individual variables from those studies were included in the dataset to determine significant covariates and their effect size. Subject variables included the study ID, patient ID, treatment, health status, and DEE disease type. Baseline demographic variables included age, body weight, body mass index, gender, race, and Chinese or Asian ethnic origin. Baseline laboratory variables included aspartate aminotransferase (AST), gamma-glutamyl transferase (GGT), alkaline phosphatase (ALP), bilirubin, creatinine, albumin, alpha-1-acid glycoprotein (A1-AGLP), estimated glomerular filtration rate (eGFR), and creatinine clearance (CrCl)) (see formulas in example 12). […] Another variable was the type of antiepileptic drugs patients were on concomitantly during the trial.
The dataset included 2193 observations from 173 subjects. Both PK and PK/PD parameters were analyzed as a mixed-effects population model using the computer program NONMEM. A mixed-effects model takes into account fixed value parameters and random-effect parameters. The first stage of the analysis began with using only data obtained from the oral solution studies in a structural and statistical base model to account for concentration changes over time and for between and within subject variability. Several different structural model types were tested and the structure of the omega complex was optimized. Omega, expressed as random effects variance, represents the difference between an individual's parameter value and the population value and describes the distribution of between subject variability across the population. The linear two-compartment model incorporates delayed first-order absorption from oral administration. Model parameters were absorption lag time (ALAG1), bioavailability (F1), elimination clearance (CL), absorption rate constant (KA), central volume (V2), inter-compartmental clearance (Q), and peripheral volume (V3). Random effects were estimated for F1, KA, Q, and V3. The omega matrix was restricted to a diagonal structure, wherein between parameter correlations are ignored. A combined additive and proportional residue error model was utilized to broadly reflect […].
The second stage of the analysis added data collected from the tablet formulation studies in adults.
The third stage of the analysis added the pediatric data collected from the ELEKTRA study. A range of different formulations and administration procedures were used for the pediatric patients, including swallowed mini-tablets, tablets, and crushed tablets administered through a gastrostomy tube. […] Next variables were screened separately by correlating the individual random effects with the base model. An F-test was used to determine the significance of the individual random effects with and without the variable. Candidates were further screened using a standard forward inclusion (α<0.05), backward deletion (α<0.01) procedure.

[4] = between subject variation as standard deviation

O=C(c1cccnc1-c1ccncc1)N1CCC(O)(Cc2ccccc2)CC1 [soticlestat]
mean plasma 24HC decrease from baseline (plasma 24HC [1]; day 11): 69.76%
mean plasma 24HC decrease from baseline (plasma 24HC [1]; day 21): 76.88%
plasma 24HC mean percent change from baseline (plasma 24HC [1]; day 11): −69.76%
plasma 24HC mean percent change from baseline (plasma 24HC [1]; day 21): −76.88%
plasma 24HC mean percent change from baseline (plasma 24HC [1]; day 85): −80.97%
mean percent decrease of plasma 24HC (plasma 24HC [1]; end of Part B (day 85)): 80.97%
maximum decrease in percent change from Baseline of mean AUEC24 (plasma 24HC [2]; 1200 mg single dose, compared with placebo): approximately 11.4%
AUEC24 of plasma 24HC (plasma 24HC [2]; Day 1, single dose 200 mg): 1017 (27.5) h*ng/mL
AUEC24 of plasma 24HC (plasma 24HC [2]; Day 1, single dose 600 mg): 1311 (30.2) h*ng/mL
AUEC24 of plasma 24HC (plasma 24HC [2]; Day 1, single dose 1200 mg): 898.3 (16.6) h*ng/mL
Emax (plasma 24HC [2]; single dose 200 mg): -17.7%
Emax (plasma 24HC [2]; single dose 600 mg): -21.4%
Emax (plasma 24HC [2]; single dose 1200 mg): -29.7%
% change from Baseline in AUEC24 of plasma 24HC (plasma 24HC [2]; single dose 200 mg): −8.875%
% change from Baseline in E24 of plasma 24HC (plasma 24HC [2]; single dose 200 mg): −20.29%
AUECt of plasma 24HC (time 0 to last sampling time point) (plasma 24HC [2]; single dose 200 mg): 1918 (26.0) h*ng/mL
E24 of plasma 24HC (observed effect at 24 hours) (plasma 24HC [2]; single dose 200 mg): 39.95 (25.4) ng/mL
Emax of plasma 24HC (maximum drug-induced effect) (plasma 24HC [2]; single dose 200 mg): 35.25 (24.3) ng/mL
Time to Emax of plasma 24HC (plasma 24HC [2]; single dose 200 mg): 48.00 (48.0-48.0) h
% change from Baseline in AUEC24 of plasma 24HC (plasma 24HC [2]; single dose 600 mg): −8.482%
% change from Baseline in E24 of plasma 24HC (plasma 24HC [2]; single dose 600 mg): −24.02%
AUECt of plasma 24HC (time 0 to last sampling time point) (plasma 24HC [2]; single dose 600 mg): 2425 (31.2) h*ng/mL
E24 of plasma 24HC (observed effect at 24 hours) (plasma 24HC [2]; single dose 600 mg): 48.47 (32.0) ng/mL
Emax of plasma 24HC (maximum drug-induced effect) (plasma 24HC [2]; single dose 600 mg): 43.25 (35.3) ng/mL
Time to Emax of plasma 24HC (plasma 24HC [2]; single dose 600 mg): 48.00 (24.0-48.0) h
% change from Baseline in AUEC24 of plasma 24HC (plasma 24HC [2]; single dose 1200 mg): −11.36%
% change from Baseline in E24 of plasma 24HC (plasma 24HC [2]; single dose 1200 mg): −22.65%
AUECt of plasma 24HC (time 0 to last sampling time point) (plasma 24HC [2]; single dose 1200 mg): 1627 (18.7) h*ng/mL
E24 of plasma 24HC (observed effect at 24 hours) (plasma 24HC [2]; single dose 1200 mg): 33.57 (19.8) ng/mL
Emax of plasma 24HC (maximum drug-induced effect) (plasma 24HC [2]; single dose 1200 mg): 27.30 (24.4) ng/mL
Time to Emax of plasma 24HC (plasma 24HC [2]; single dose 1200 mg): 48.00 (48.0-48.0) h
simulated change in AUC with twice the dosage ([3]; FIG. 21, reference ELEKTRA patient 100 mg BID): 130%
F1: BSV [3, 4]: 0.538
KA: BSV [3, 4]: 1.1
Q: BSV [3, 4]: 0.369
V3: BSV [3, 4]: 0.559
ALAG1: Non-OS formulation (%) ([3]; covariate effect on ALAG1): 25.2%
CL: Patient (%) ([3]; covariate effect on CL): −24.4%
F1: A1-AGLP exponent ([3]; covariate effect on F1): 0.739
F1: weight exponent ([3]; covariate effect on F1): −0.516
F1: Dose exponent ([3]; covariate effect on F1, fixed): 0.204
KA: BMI exponent ([3]; covariate effect on KA): 2.52
KA: Strong Inducer (%) ([3]; covariate effect on KA): −73.7%
KA: non-OS formulation (%) ([3]; covariate effect on KA): −45.7%
KA: Dose exponent ([3]; covariate effect on KA, fixed): −0.753
Q: Dose exponent ([3]; covariate effect on Q, fixed): −0.218
V3: Asian (%) ([3]; covariate effect on V3): −39.4%
V3: eGFI exponent ([3]; covariate effect on V3): −0.469
V3: Dose exponent ([3]; covariate effect on V3, fixed): −0.214
ALAG1 typical value ([3]; final population PK model): 0.131 h
F1: BSV explained by A1-AGLP (%) ([3]; final population PK model): 33.6%
KA typical value ([3]; final population PK model): 7.49 h⁻¹
Q typical value ([3]; final population PK model): 1.16 L/h
V2 typical value ([3]; final population PK model): 2.99 L
V3 typical value ([3]; final population PK model): 7.51 L
F1 typical value ([3]; final population PK model, fixed): 0.0216
CL typical value ([3]; human): 4.31 L/h
estimated weight exponent on steady state AUC ([3]; human): 0.516
typical value for CL/F ([3]; human): 150 L/h
typical value for V2/F (central volume distribution) ([3]; population model): 138.43 L

Reference: patent US20250213547A1, “METHODS OF TREATING NEUROLOGICAL DISEASES” (priority 2022, published 2025)
